In patent US8722730B2, “5-membered heterocyclic compound” (Research Foundation Itsuu Laboratory, priority 2007, dated 2014):
Where two headings read alike, the source gives them in different places.

Legend:
[1] = cited from earlier work
[2] = system: human acute promyelocytic leukemia cell strain HL-60; experiment: Differentiation induction of HL-60 cells, NBT-reducing ability; type: cell-based; conditions: 96 h, cultured four days, NBT reduction, read-out: ED50 (the source's name)
Experimental: Cells of human acute promyelocytic leukemia cell strain HL-60 were cultured in a CO2 incubator (5% CO2, 37° C.) using the RPMI medium containing 5% FBS. Differentiation inducing action of the compounds of the present invention on the HL-60 cells were evaluated on the basis of ability to reduce nitroblue tetrazolium (NBT) determined by observing differentiation from promyelocytic cells into granulocytic cells as an index. As positive control of retinoid compounds, retinoic acid and Am80 [4-[(5,6,7,8-tetrahydro-5,5,8,8-tetramethyl-2-naphthalenyl)carbamoyl]benzoic acid] were used. The cells that entered into the logarithmic phase and reached a substantially confluent state were centrifuged at 1000 rpm for 5 minutes, and the culture supernatant was removed. The cell pellet was suspended in fresh RPMI medium containing 5% FBS at a density of 8.0×10^4 cells/ml, then the suspension was added with a test compound dissolved in DMSO at an intended concentration, and the cells were cultured for four days and then used for the experiment. The samples were prepared so as to have the same DMSO concentration.
Cell count of the cells after the culture for a predetermined period was determined by a cell counting method using a blood cell counting chamber. The NBT-reducing ability was obtained as follows. NBT was dissolved in a phosphate buffered saline (PBS(−)) at a concentration of 0.2%, and the solution was added with an equivalent volume of the RPMI medium containing 5% FBS. The mixture was added with phorbol 12-myristate 13-acetate (tPA) at a concentration of 0.2 μM (about 200 ng) to prepare a reagent solution. The collected cells were centrifuged at 1000 rpm for 5 minutes, the supernatant was removed, and the remained cell pellet was added with the reagent solution. The mixture was incubated on a water bath at 37° C. for 20 minutes, and then NBT-reduced stained positive cells were counted by using the counting chamber to calculate a differentiation induction ratio.

Row | SMILES | EC50 [2] | melting point | further results
1 | CC(C)(C)c1ccc(C(=O)Nc2ccc(C(=O)O)cc2)o1 [4-[(5-t-butylfuran-2-carbonyl)amino]benzoic acid] |  |  | differentiation induction ratio ([1]; at 3.7 μM): 26%; differentiation induction ratio ([1]; at 19 μM): 42%; differentiation induction ratio ([1]; at 74 μM): 60%
2 | CC(C)(C)c1ccc(C(=O)Nc2ccc(C(=O)O)cc2)s1 [4-[(5-t-butylthiophene-2-carbonyl)amino]benzoic acid] |  |  | differentiation induction ([1]; at 0.22 μM): no differentiation induction; differentiation induction ratio ([1]; at 1.1 μM): 22%; differentiation induction ratio ([1]; at 5.6 μM): 23%
3 | CC1(C)CCC(C)(C)c2cc(NC(=O)c3ccc(C(=O)O)cc3)ccc21 [Am80, 4-[(5,6,7,8-tetrahydro-5,5,8,8-tetramethyl-2-naphthalenyl)carbamoyl]benzoic acid, reference compound] | 1.6 nM |  | 
4 | CC(C)c1cc(C(=O)Nc2ccc(OCC(=O)O)cc2)oc1C(C)C [Compound 3, 4-[(4,5-Diisopropylfuran-2-carbonyl)amino]phenyloxyacetic acid] |  | 83 to 85 °C | 
5 | CC(C)c1cc(C(=O)Nc2ccc(CCC(=O)O)cc2)oc1C(C)C [Compound 6, 3-[4-[(4,5-Diisopropylfuran-2-carbonyl)amino]phenyl]propionic acid] | > 1000 nM | 139 to 141 °C | 
6 | CC(C)c1cc(/C=C/C(=O)Nc2ccc(C(=O)O)cc2)oc1C(C)C [Compound 10, 4-[[3-(4,5-Diisopropyl-2-furanyl)acryloyl]amino]benzoic acid] | 166 nM | 131 to 133 °C | 
7 | C/C(=C\C(=O)Nc1ccc(C(=O)O)cc1)c1cc(C(C)C)c(C(C)C)o1 [Compound 11, 4-[[3-(4,5-Diisopropyl-2-furanyl)crotonoyl]amino]benzoic acid] | 74.7 nM | 232.5 to 235 °C | 
8 | CC(C)c1cc(C(=O)Nc2ccc(C(=O)O)cc2)[nH]c1C(C)C [Compound 12, 4-[(4,5-Diisopropylpyrrole-2-carbonyl)amino]benzoic acid] | 40.4 nM | 230 to 230.5 °C | 
9 | CC(C)c1cc(C(C)C)c(C(=O)Nc2ccc(C(=O)O)cc2)[nH]1 [Compound 13, 4-[(3,5-Diisopropylpyrrole-2-carbonyl)amino]benzoic acid] |  | 225 to 226 °C | 
10 | CC(C)c1[nH]c(C(=O)Nc2ccc(C(=O)O)cc2)c(C(C)C)c1C(C)C [Compound 14, 4-[(3,4,5-Triisopropylpyrrole-2-carbonyl)amino]benzoic acid] | > 1000 nM | > 300 °C | 
11 | CC(C)c1cc(C(=O)Nc2ccc(C(=O)O)cc2)sc1C(C)C [Compound 15, 4-[(4,5-Diisopropylthiophene-2-carbonyl)amino]benzoic acid] | 1.8 nM | 219 to 221 °C | 
12 | CC(C)c1cc(C(=O)Nc2ccc(C(=O)O)nc2)sc1C(C)C [Compound 16, 5-[(4,5-Diisopropylthiophene-2-carbonyl)amino]pyridine-2-carboxylic acid] |  | 216 to 217 °C | 
13 | CC(C)c1cc(C(=O)Nc2ccc(C(=O)O)cn2)sc1C(C)C [Compound 17, 6-[(4,5-Diisopropylthiophene-2-carbonyl)amino]pyridine-3-carboxylic acid] |  | > 300 °C | 
14 | CC(C)c1cc(/C=C/C(=O)N(C)c2ccc(C(=O)O)cc2)oc1C(C)C [Compound 27, 4-[[3-(4,5-Diisopropyl-2-furanyl)acryloyl]methylamino]benzoic acid] |  | 213 to 214 °C | 
15 | CC(C)c1cc(/C=C/C(=O)Nc2cccc(C(=O)O)c2)oc1C(C)C [Compound 28, 3-[[3-(4,5-Diisopropyl-2-furanyl)acryloyl]amino]benzoic acid] |  | 220.5 to 221.5 °C | 
16 | CC(C)c1cc(/C=C/C(=O)N(C)c2cccc(C(=O)O)c2)oc1C(C)C [Compound 29, 3-[[3-(4,5-Diisopropyl-2-furanyl)acryloyl]methylamino]benzoic acid] |  | 187.5 to 189 °C | 
17 | CC(C)c1cc(C(=O)Nc2ccc(C(=O)O)c(F)c2)sc1C(C)C [Compound 39, 2-Fluoro-4-[(4,5-diisopropylthiophene-2-carbonyl)amino]benzoic acid] |  | 133 to 135 °C | 
18 | CC(C)c1cc(C(=O)Nc2ccc(C(=O)O)c(O)c2)sc1C(C)C [Compound 41, 2-Hydroxy-4-[(4,5-diisopropylthiophene-2-carbonyl)amino]benzoic acid] |  | 129 to 130 °C | 
19 | COc1cc(NC(=O)c2cc(C(C)C)c(C(C)C)s2)ccc1C(=O)O [Compound 42, 2-Methoxy-4-[(4,5-diisopropylthiophene-2-carbonyl)amino]benzoic acid] |  | 213 to 214 °C | 
20 | CC(C)c1cc(C(=O)Nc2cc(F)c(C(=O)O)c(F)c2)sc1C(C)C [Compound 43, 2,6-Difluoro-4-[(4,5-diisopropylthiophene-2-carbonyl)amino]benzoic acid] |  | 218 to 219 °C | 

Continued, in another order:

Row | EC50 [2] | melting point | SMILES | further results
21 | 1.1 nM | 120 to 121 °C | CC(C)c1cc(C(=O)Nc2ccc(C(=O)O)cc2)oc1C(C)C [Compound 1, 4-[(4,5-Diisopropylfuran-2-carbonyl)amino]benzoic acid] | 
22 |  | 154 to 156 °C | CC(C)c1cc(C(=O)Nc2ccc(CC(=O)O)cc2)oc1C(C)C [Compound 4, 4-[(4,5-Diisopropylfuran-2-carbonyl)amino]phenylacetic acid] | 
23 |  | 243.5 to 245 °C | CC(C)c1cc(C(=O)Nc2cccc(C(=O)O)c2)oc1C(C)C [Compound 5, 3-[(4,5-Diisopropylfuran-2-carbonyl)amino]benzoic acid] | 
24 | 13.1 nM | 106 to 107.5 °C | CC(C)c1cc(C(=O)Nc2ccc(C(=O)O)nc2)oc1C(C)C [Compound 7, 5-[(4,5-Diisopropylfuran-2-carbonyl)amino]pyridine-2-carboxylic acid] | 
25 | 1.9 nM | 278 to 279 °C | CC(C)c1cc(C(=O)Nc2ccc(C(=O)O)cn2)oc1C(C)C [Compound 8, 6-[(4,5-Diisopropylfuran-2-carbonyl)amino]pyridine-3-carboxylic acid] | 
26 | 72.9 nM | 227 to 228.5 °C | CC(C)c1cc(C(=O)Nc2ccc(C(=O)O)s2)oc1C(C)C [Compound 9, 5-[(4,5-Diisopropylfuran-2-carbonyl)amino]thiophene-2-carboxylic acid] | 
27 |  | 151 to 152 °C | CC(C)c1cc(C(=O)Nc2ccc(C(=O)O)c(F)c2)oc1C(C)C [Compound 22, 2-Fluoro-4-[(4,5-diisopropylfuran-2-carbonyl)amino]benzoic acid] | 
28 |  | 152 to 153 °C | CC(C)c1cc(C(=O)Nc2ccc(C(=O)O)c(Cl)c2)oc1C(C)C [Compound 23, 2-Chloro-4-[(4,5-diisopropylfuran-2-carbonyl)amino]benzoic acid] | 
29 |  | 179 to 180 °C | CC(C)c1cc(C(=O)Nc2ccc(C(=O)O)c(O)c2)oc1C(C)C [Compound 24, 2-Hydroxy-4-[(4,5-diisopropylfuran-2-carbonyl)amino]benzoic acid] | 
30 |  | 136 to 137 °C | COc1cc(NC(=O)c2cc(C(C)C)c(C(C)C)o2)ccc1C(=O)O [Compound 25, 2-Methoxy-4-[(4,5-diisopropylfuran-2-carbonyl)amino]benzoic acid] | 
31 |  | 169 to 171 °C | CC(C)c1cc(C(=O)Nc2ccc(C(=O)O)o2)oc1C(C)C [Compound 35, 5-[(4,5-Diisopropylfuran-2-carbonyl)amino]-2-furancarboxylic acid] | 
32 |  | 240 to 243 °C | CC(C)c1cc(C(=O)Nc2ccc3[nH]c(C(=O)O)cc3c2)oc1C(C)C [Compound 36, 5-[(4,5-Diisopropylfuran-2-carbonyl)amino]-2-indolecarboxylic acid] | 
33 |  | 222 to 223 °C | CC(C)c1cc(C(=O)Nc2ccc(C(=O)O)c(Cl)c2)sc1C(C)C [Compound 40, 2-Chloro-4-[(4,5-diisopropylthiophene-2-carbonyl)amino]benzoic acid] | 
